# Measured values published in US9850256B2, “Antibacterial basic biaromatic derivatives with aminoalkoxy substitution” (priority 2014, dated 2017).
# Assays:
# Experiment in all cases: Bacterial growth minimal inhibitory concentration (microdilution, cation-adjusted Mueller-Hinton Broth)
# K. pneumoniae T6474 = assay type: cell-based, Klebsiella pneumoniae; settings: multiply-resistant strain (penicillin-, cephalosporin- and quinolone-resistant); for MIC: Klebsiella pneumoniae, T6474
# Outline: (§1)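 Broth microdilution in cation-adjusted Mueller-Hinton Broth per CLSI M7-A7; MICs in mg/L. S. aureus A798 is methicillin- and quinolone-resistant, K. pneumoniae T6474 penicillin-, cephalosporin- and quinolone-resistant; E. coli ATCC25922 and P. aeruginosa ATCC 27853 are quinolone-sensitive.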
# S. aureus A798 = assay type: cell-based, Staphylococcus aureus; settings: multiply-resistant strain (methicillin- and quinolone-resistant); for MIC: Staphylococcus aureus, A798
# Outline: as §1
# E. coli ATCC25922 = assay type: cell-based; settings: quinolone-sensitive strain; for MIC: Escherichia coli, ATCC25922
# Outline: as §1
# P. aeruginosa ATCC 27853 = assay type: cell-based, Pseudomonas aeruginosa; settings: quinolone-sensitive strain; for MIC: Pseudomonas aeruginosa, ATCC27853
# Outline: as §1
Structure (SMILES),MIC (K. pneumoniae T6474) [µg/mL],MIC (S. aureus A798) [µg/mL],MIC (E. coli ATCC25922) [µg/mL],MIC (P. aeruginosa ATCC 27853) [µg/mL],MIC for K. pneumoniae T6474 (K. pneumoniae T6474) [µg/mL],MIC for S. aureus A798 (S. aureus A798) [µg/mL],MIC for E. coli ATCC25922 (E. coli ATCC25922) [µg/mL],MIC for P. aeruginosa ATCC 27853 (P. aeruginosa ATCC 27853) [µg/mL]
"NC1[C@H]2CN(CCOc3cccc(-c4cccc(CNCC[C@H]5CN(c6ccc7c(n6)NC(=O)CO7)C(=O)O5)c4)c3)C[C@@H]12 (mixture of isomers) [Example $117, 6-{(S)-5-[2-({3′-[2-((1R*,5S*,6RS)-6-amino-3-aza-bicyclo[3.1.0]hex-3-yl)-ethoxy]-biphenyl-3-ylmethyl}-amino)-ethyl]-2-oxo-oxazolidin-3-yl}-4H-pyrido[3,2-b][1,4]oxazin-3-one]",,,,,1,1,1,4
"CCN1CCC(Oc2cccc(-c3cccc(CNCC[C@H]4CN(c5ccc6c(n5)NC(=O)CO6)C(=O)O4)c3)n2)C1 (mixture of isomers) [Example $126, 6-[(S)-5-(2-{3-[6-((RS)-1-ethyl-pyrrolidin-3-yloxy)-pyridin-2-yl]-benzylamino}-ethyl)-2-oxo-oxazolidin-3-yl]-4H-pyrido[3,2-b][1,4]oxazin-3-one]",2,0.5,1,2,,,,
"O=C1COc2ccc(N3C[C@H](CCNCc4cccc(-c5cccc(OC[C@@H]6CCN6)c5)c4)OC3=O)nc2N1 [Example $101, 6-[(S)-5-(2-{[3′-((S)-1-azetidin-2-ylmethoxy)-biphenyl-3-ylmethyl]-amino}-ethyl)-2-oxo-oxazolidin-3-yl]-4H-pyrido[3,2-b][1,4]oxazin-3-one]",2,2,1,1,,,,
"COc1cc(OCCN)cc(-c2ccnc(CNCC[C@H]3CN(c4ccc5c(n4)NC(=O)CO5)C(=O)O3)c2)n1 [Example $162, 6-[(S)-5-(2-{[4-(2-amino-ethoxy)-6-methoxy-[2,4′]bipyridinyl-2′-ylmethyl]-amino}-ethyl)-2-oxo-oxazolidin-3-yl]-4H-pyrido[3,2-b][1,4]oxazin-3-one]",1,1,1,1,,,,
"COc1cc(O[C@H]2CCN(C)C2)cc(-c2cccc(CNCC[C@H]3CN(c4ccc5c(n4)NC(=O)CO5)C(=O)O3)c2)n1 [Example $170, 6-[(S)-5-(2-{3-[6-methoxy-4-((S)-1-methyl-pyrrolidin-3-yloxy)-pyridin-2-yl]-benzylamino}-ethyl)-2-oxo-oxazolidin-3-yl]-4H-pyrido[3,2-b][1,4]oxazin-3-one]",4,0.25,2,2,,,,
"O=C1COc2ccc(N3C[C@H](CCNCc4cccc(-c5cccc(OCCN6CCCCC6)n5)c4)OC3=O)nc2N1 [Example 12, 6-[(S)-2-oxo-5-(2-{3-[6-(2-piperidin-1-yl-ethoxy)-pyridin-2-yl]-benzylamino}-ethyl)-oxazolidin-3-yl]-4H-pyrido[3,2-b][1,4]oxazin-3-one]",2,0.063,1,2,,,,
"O=C1COc2ccc(N3C[C@H](CCNCc4cccc(-c5cccc(OC6CNC6)c5)c4)OC3=O)nc2N1 [Example $105, 6-[(S)-5-(2-{[3′-(azetidin-3-yloxy)-biphenyl-3-ylmethyl]-amino}-ethyl)-2-oxo-oxazolidin-3-yl]-4H-pyrido[3,2-b][1,4]oxazin-3-one]",2,2,2,2,,,,
"NCCOc1cncc(-c2cccc(CNCC[C@H]3CN(c4ccc5c(n4)NC(=O)CO5)C(=O)O3)c2)n1 [Example 15, 6-[(S)-5-(2-{3-[6-(2-amino-ethoxy)-pyrazin-2-yl]-benzylamino}-ethyl)-2-oxo-oxazolidin-3-yl]-4H-pyrido[3,2-b][1,4]oxazin-3-one]",2,0.5,1,1,,,,
"NCCCCCOc1cccc(-c2cccc(CNCC[C@H]3CN(c4ccc5c(n4)NC(=O)CO5)C(=O)O3)c2)n1 [Example 20, 6-[(S)-5-(2-{3-[6-(5-amino-pentyloxy)-pyridin-2-yl]-benzylamino}-ethyl)-2-oxo-oxazolidin-3-yl]-4H-pyrido[3,2-b][1,4]oxazin-3-one]",8,0.5,2,2,,,,
"C[C@H]1C[C@H](Oc2cccc(-c3cccc(CNCC[C@H]4CN(c5ccc6c(n5)NC(=O)CO6)C(=O)O4)c3)n2)CN1 [Example $131, 6-[(S)-5-(2-{3-[6-((3S,5S)-5-methyl-pyrrolidin-3-yloxy)-pyridin-2-yl]-benzylamino}-ethyl)-2-oxo-oxazolidin-3-yl]-4H-pyrido[3,2-b][1,4]oxazin-3-one]",1,0.25,0.5,0.5,,,,
"CNCCOc1cccc(-c2cccc(CNCC[C@H]3CN(c4ccc5c(n4)NC(=O)CO5)C(=O)O3)c2)c1 [Example 4, 6-[(S)-5-(2-{[3′-(2-methylamino-ethoxy)-biphenyl-3-ylmethyl]-amino}-ethyl)-2-oxo-oxazolidin-3-yl]-4H-pyrido[3,2-b][1,4]oxazin-3-one]",2,2,1,2,,,,
"CN1CC(Oc2cccc(-c3cccc(CNCC[C@@H]4CN(c5ccc6c(c5)NC(=O)CS6)C(=O)O4)c3)n2)C1 [Example $149, 6-[(R)-5-(2-{3-[6-(1-methyl-azetidin-3-yloxy)-pyridin-2-yl]-benzylamino}-ethyl)-2-oxo-oxazolidin-3-yl]-4H-benzo[1,4]thiazin-3-one]",1,0.5,0.5,1,,,,
"O=C1COc2ccc(N3C[C@H](CCNCc4cccc(-c5cccc(OCC6CNC6)n5)c4)OC3=O)nc2N1 [Example $106, 6-[(S)-5-(2-{3-[6-(azetidin-3-ylmethoxy)-pyridin-2-yl]-benzylamino}-ethyl)-2-oxo-oxazolidin-3-yl]-4H-pyrido[3,2-b][1,4]oxazin-3-one]",4,2,2,1,,,,
"NCCOc1cccc(-c2cccc(CNCC[C@@H]3CN(c4ccc5c(c4)NC(=O)CS5)C(=O)O3)c2)n1 [Example 22, 6-[(R)-5-(2-{3-[6-(2-amino-ethoxy)-pyridin-2-yl]-benzylamino}-ethyl)-2-oxo-oxazolidin-3-yl]-4H-benzo[1,4]thiazin-3-one]",2,0.5,0.5,0.5,,,,

# Now from value to molecule, other results behind:
MIC (K. pneumoniae T6474) [µg/mL],MIC (S. aureus A798) [µg/mL],MIC (E. coli ATCC25922) [µg/mL],MIC (P. aeruginosa ATCC 27853) [µg/mL],Structure (SMILES),MIC for K. pneumoniae T6474 (K. pneumoniae T6474) [µg/mL],MIC for S. aureus A798 (S. aureus A798) [µg/mL],MIC for E. coli ATCC25922 (E. coli ATCC25922) [µg/mL],MIC for P. aeruginosa ATCC 27853 (P. aeruginosa ATCC 27853) [µg/mL]
2,1,2,2,"O=C1COc2ccc(N3C[C@H](CCNCc4cccc(-c5cccc(OC6CCCNC6)n5)c4)OC3=O)nc2N1.O=CO (mixture of isomers) [Example $111, 6-[(S)-2-oxo-5-(2-{3-[6-((RS)-piperidin-3-yloxy)-pyridin-2-yl]-benzylamino}-ethyl)-oxazolidin-3-yl]-4H-pyrido[3,2-b][1,4]oxazin-3-one formate]",,,,
1,0.25,0.5,0.5,"CN1CC(Oc2cccc(-c3ccnc(CNCC[C@H]4CN(c5ccc6c(n5)NC(=O)CO6)C(=O)O4)c3)n2)C1 [Example $186, 6-[(S)-5-(2-{[6-(1-methyl-azetidin-3-yloxy)-[2,4′]bipyridinyl-2′-ylmethyl]-amino}-ethyl)-2-oxo-oxazolidin-3-yl]-4H-pyrido[3,2-b][1,4]oxazin-3-one]",,,,
2,2,1,2,"O=C1COc2ccc(N3C[C@H](CCNCc4cccc(-c5cccc(OC[C@@H]6CCCN6)c5)c4)OC3=O)nc2N1 [Example $102, 6-((S)-2-oxo-5-(2-(((3′-(((S)-pyrrolidin-2-yl)methoxy)-[1,1′-biphenyl]-3-yl)methyl)amino)ethyl)oxazolidin-3-yl)-2H-pyrido[3,2-b][1,4]oxazin-3(4H)-one]",,,,
1,2,1,2,"NCCOc1cccc(-c2cccc(CNCC[C@H]3CN(c4ccc5c(n4)NC(=O)CO5)C(=O)O3)c2)c1 [Example 1, 6-[(S)-5-(2-{[3′-(2-amino-ethoxy)-biphenyl-3-ylmethyl]-amino}-ethyl)-2-oxo-oxazolidin-3-yl]-4H-pyrido[3,2-b][1,4]oxazin-3-one]",,,,
8,4,2,1,"NCCOc1nccc(-c2cccc(CNCC[C@H]3CN(c4ccc5c(n4)NC(=O)CO5)C(=O)O3)c2)n1 [Example $160, 6-[(S)-5-(2-{3-[2-(2-amino-ethoxy)-pyrimidin-4-yl]-benzylamino}-ethyl)-2-oxo-oxazolidin-3-yl]-4H-pyrido[3,2-b][1,4]oxazin-3-one]",,,,
16,8,16,16,"O=C1COc2ccc(N3C[C@H](CCNCc4cccc(-c5cc(OC[C@@H]6CCN6)cnn5)c4)OC3=O)nc2N1 [Example $182, 6-[(S)-5-(2-{3-[5-((S)-1-azetidin-2-ylmethoxy)-pyridazin-3-yl]-benzylamino}-ethyl)-2-oxo-oxazolidin-3-yl]-4H-pyrido[3,2-b][1,4]oxazin-3-one]",,,,
1,0.5,0.5,0.5,"CN1CC(Oc2cncc(-c3ccnc(CNCC[C@H]4CN(c5ccc6c(n5)NC(=O)CO6)C(=O)O4)c3)n2)C1 [Example $187, 6-{(S)-5-[2-({4-[6-(1-methyl-azetidin-3-yloxy)-pyrazin-2-yl]-pyridin-2-ylmethyl}-amino)-ethyl]-2-oxo-oxazolidin-3-yl}-4H-pyrido[3,2-b][1,4]oxazin-3-one]",,,,
